Data set [1] in a line: Single-dose pharmacokinetics in dogs. In kind it is in vivo. The settings on record: dog. The method, then:
Serial blood samples were collected for all studies at various time points post dose (0.17 (or 0.25 for oral), 0.5, 0.75, 1, 2, 4, 6, 8 and 24 h, for example). Plasma samples were analyzed by LC-MS/MS.

The next data set in a line: Protein binding, human. The format is in vitro ADME.
The target of another data set is T1, CCR1 (Homo sapiens, UniProt P32246).
T1 construct: THP-1 monocytic leukemia cells are combined with 100 μg of LS WGA PS beads; endogenous in cells; host or cells: THP-1 monocytic leukemia cells
T1 sequence (P32246 1-355): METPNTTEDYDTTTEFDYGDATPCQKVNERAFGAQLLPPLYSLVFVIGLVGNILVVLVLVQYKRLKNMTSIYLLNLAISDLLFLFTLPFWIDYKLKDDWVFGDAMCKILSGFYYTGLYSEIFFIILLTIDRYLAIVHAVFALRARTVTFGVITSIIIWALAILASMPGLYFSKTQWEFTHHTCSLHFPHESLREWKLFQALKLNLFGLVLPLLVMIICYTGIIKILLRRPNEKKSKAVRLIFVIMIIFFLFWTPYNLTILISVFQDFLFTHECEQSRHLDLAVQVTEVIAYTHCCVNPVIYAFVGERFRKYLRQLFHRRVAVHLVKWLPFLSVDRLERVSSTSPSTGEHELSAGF
Nature of the data set: Human CCR1 THP-1 binding assay ([125I]MIP-1α competition). The conditions noted are these: THP-1 cells. The method, then:
For radioligand competition studies, a final concentration of 1×10^5 THP-1 monocytic leukemia cells are combined with 100 μg of LS WGA PS beads (Amersham, Cat.#: RPNQ 0260) in 40 μL of assay buffer (RPMI 1640 without phenol red, 50 mM HEPES, 5 mM MgCl2, 1 mM CaCl2, 0.1% BSA). The THP-1 cell/bead mixture was added to each well of a 384-well assay plate (PerkinElmer, Cat. #:6007899) containing test compound in 3-fold serial dilution, with final concentrations ranging from 8 μM to 0.14 nM. A final concentration of 0.1 nM [^125I]MIP-1α (PerkinElmer, Cat. # NEX298) in 20 μL assay buffer was added to the reaction. Unlabeled MIP-1α was added in excess to some wells to determine non-specific binding. Sealed assay plates were incubated at room temperature for 12 h then analyzed by LEADseeker™.
The competition data of the test compound over a range of concentrations is plotted as percentage inhibition of radioligand specifically bound in the absence of test compound (percent of total signal). After correcting for non-specific binding, IC50 values are determined. […] The Ki values are determined by application of the Cheng-Prusoff equation to the IC50 values, where Ki=IC50/(1+ligand concentration/Kd). […]

Data set [2] is described as follows: Human liver microsomal metabolism, Assay Conditions B. In kind it is in vitro ADME. The method, then:
Test compound is received as 20 mM in DMSO. Compound is diluted to create a 300 μM acetonitrile (ACN) solution containing 1.5% DMSO, which is then used as a 100× stock for incubation with microsomes. Each compound is tested in duplicate separately in each of three species in the Metabolic Stability-Human, Rat, Mouse assay suite or individual species in the Metabolic Stability-Dog or Metabolic Stability-Monkey suites. Compound, NADPH and liver microsome solutions are combined for incubation in three steps: • 1. 450 μL of liver microsome suspension, protein concentration of 1 mg/mL in 100 mM NaPi, pH 7.4, 6.6 mM MgCl2 buffer, are pre-warmed at 37° C. • 2. […] of 300 μM compound (98.5% CAN, 1.5% DMSO) is added to the same tube. • 3. The reaction is initiated by the addition of 50 μL of pre-warmed 5 mM NADPH solution in 100 mM NaPi, pH 7.4.
Reaction components are mixed well and 150 μL removed to quench/stop solution immediately for the zero-minute time point. Reactions are incubated at 37° C. for 10 minutes and then an additional 150 μL removed from incubation. Aliquots removed are combined with 300 μL ACN which contains 100 μM DMN as a UV standard for detection.
Quenched mixtures are centrifuged at 1500 rpm (˜500×g) in an Allegra X-12 centrifuge, SX4750 rotor (Beckman Coulter Inc., Fullerton, Calif.) for fifteen minutes to pellet denatured microsomes. A volume of 110 μl of supernatant extract, containing the mixture of parent compound and its metabolites, is then transferred to a separate 96-well plate for UV-LC/MS-MS analysis to determine the percent of parent compound that is remaining in the mixture.
For orientation: Microsomes from liver hold many membrane-bound enzymes, among them those of drug oxidation.

Data set [3] can be described thus: Human liver microsomal metabolism, Assay Conditions A. The format is in vitro ADME. The settings on record: 0.5 μM compound, 10 minutes, 37° C. How it is done:
Test compound is received as a 3.5 mM stock solution in 100 percent DMSO. Compound is diluted to create a 50 μM acetonitrile (ACN) solution containing 1.4% DMSO, which is then used as a 100× stock for incubation with microsomes. Each compound is tested in duplicate separately in each of three species in the Metabolic Stability-Human, Rat, and Mouse assay suite or as individual species in the Metabolic Stability-Dog or Metabolic Stability-Monkey suites. Compound, NADPH and liver microsome solutions are combined for incubation in three steps:
152 μL of liver microsome suspension, protein concentration of 1.1 mg/mL in 100 mM NaPi, pH 7.4, 6.6 mM MgCl2 buffer, is pre-warmed at 37° C.
• 1) 1.7 μL of 50 μM compound (98.6% ACN, 1.4% DMSO) is added to the same tube and pre-incubated at 37° C. for 5 minutes. • 2) The reaction is initiated by the addition of 17 μL of pre-warmed 10 mM NADPH solution in 100 mM NaPi, pH 7.4. • 3) Reaction components are mixed well, and 75 μL are immediately transferred into 150 μl quench/stop solution (zero-time point, To). Reactions are incubated at 37° C. for 10 minutes and then an additional 75 μL aliquot is transferred into 150 μL quench solution. Acetonitrile containing 100 μM DMN (a UV standard for injection quality control), is used as the quench solution to terminate metabolic reactions. • 4) Quenched mixtures are centrifuged at 1500 rpm (˜500×g) in an Allegra X-12 centrifuge, SX4750 rotor (Beckman Coulter Inc., Fullerton, Calif.) for fifteen minutes to pellet denatured microsomes. A volume of 90 μL of supernatant extract, containing the mixture of parent compound and its metabolites, is then transferred to a separate 96-well plate for UV-LC/MS-MS analysis to determine the percent of parent compound that is remaining in the mixture.

pKi: −log10 of the molar value.

As a reminder, the clearance is the rate of elimination divided by the concentration. Read a high clearance as efficient removal. As usually defined, the bioavailability is the share of a dose that reaches the circulation, judged against a reference dose that is usually intravenous. For orientation: fraction unbound means free concentration divided by total concentration. Low values mean little free substance, high ones much free substance. The term pKi denotes the negative decadic logarithm of the Ki, by convention in mol/L. Read a low pKi as a high Ki. As for `CC(C)[C@@H](NC(=O)[C@@H]1CCC(F)(F)C1)C(=O)N1CC[C@](O)(c2ccc(Cl)cc2)[C@@](C)(O)C1` [Compound I, (R)—N—((R)-1-((3S,4S)-4-(4-chlorophenyl)-3,4-dihydroxy-3-methylpiperidin-1-yl)-3-methyl-1-oxobutan-2-yl)-3,3-difluorocyclopentanecarboxamide], the “decrease of in vivo clearance (CL) relative to the compared compounds” value in data set [1] is 8-13 fold. Besides, the clearance in data set [1] (male, beagle, plasma, intravenous) came out at 0.6 mL/min/kg. Also, in data set [1] (male, beagle, plasma, oral solution, read-out: dog oral bioavailability when dosed as solution), the bioavailability is 82%. For the same compound, the fraction unbound in “Protein binding, human” was 0.32. The pKi at CCR1 was 8.80. Also, the “Human Liver Microsomal Metabolism % remaining (Assay Conditions B)” value in data set [2] (3 μM compound, 10 minutes, 37° C.) is on record as 96% (B). In data set [2] (assay conditions not given), the “% of compound remaining in the human liver microsome metabolism assay” value is reported as 100%.

On CCR1, `CC(C)COC(=O)N[C@@H](C(=O)N1CC[C@](O)(c2ccc(Cl)cc2)C(C)(C)C1)C(C)C` [Example 1083] gave a pKi of 8.59. In addition, in data set [3], the “Human Liver Microsomal Metabolism % remaining (Assay Conditions A)” value was 13% (A).

Source of the values: patent US8642622B2, “Piperidinyl compound as a modulator of chemokine receptor activity” (Bristol-Myers Squibb Company, priority 2010, dated 2014).
